According to ChEMBL document CHEMBL5143531, “Towards multi-target antidiabetic agents: In vitro and in vivo evaluation of 3,5-disubstituted indolin-2-one derivatives as novel α-glucosidase inhibitors” (Bioorg Med Chem Lett, 2022):

Key:
[1] = tested on: Saccharomyces cerevisiae; assay: Inhibition of yeast alpha-glucosidase at 100 uM
[2] = Inhibition of yeast alpha-glucosidase; set-up: species or system Saccharomyces cerevisiae
[3] = tested on: Rattus norvegicus; assay: Anti-hyperglycemic activity in Wistar rat assessed as reduction in plasma glucose AUC (0 to 120 mins) at 5 mg/kg, po followed by maltose load by oral maltose tolerance test; format: functional
[4] = Inhibition of yeast alpha-glucosidase using p-nitrophenyl glycoside as substrate preincubated with enzyme for 30 mins followed by substrate addition for 60 mins by spectrophotometric analysis; set-up: species or system Saccharomyces cerevisiae
[5] = target: Glycogen synthase kinase-3 beta (Homo sapiens, UniProt P49841)
Sequence of Glycogen synthase kinase-3 beta (P49841 whole entry): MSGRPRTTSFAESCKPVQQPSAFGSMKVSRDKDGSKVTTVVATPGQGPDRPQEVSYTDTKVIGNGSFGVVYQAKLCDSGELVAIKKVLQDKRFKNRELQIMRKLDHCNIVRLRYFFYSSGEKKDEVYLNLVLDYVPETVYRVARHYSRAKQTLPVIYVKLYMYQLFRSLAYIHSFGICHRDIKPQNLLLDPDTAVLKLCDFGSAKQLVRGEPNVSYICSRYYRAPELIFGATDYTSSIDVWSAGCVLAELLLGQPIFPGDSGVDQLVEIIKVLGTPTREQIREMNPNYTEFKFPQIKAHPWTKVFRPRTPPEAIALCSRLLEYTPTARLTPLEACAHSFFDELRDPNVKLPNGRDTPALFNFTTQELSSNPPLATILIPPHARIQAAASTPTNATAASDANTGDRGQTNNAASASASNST

[6] = tested on: Rattus norvegicus; assay: Anti-hyperglycemic activity in Wistar rat assessed as reduction in plasma glucose AUC (0 to 120 mins) at 10 mg/kg, po followed by glucose load by oral glucose tolerance test; format: functional
[7] = tested on: Rattus norvegicus; assay: Anti-hyperglycemic activity in Wistar rat assessed as reduction in plasma glucose AUC (0 to 120 mins) at 10 mg/kg, po followed by sucrose load by oral sucrose tolerance test; format: functional
[8] = Inhibition of yeast alpha-glucosidase using p-nitrophenyl glycoside as substrate preincubated with enzyme for 15 mins followed by substrate addition for 30 mins; set-up: species or system Saccharomyces cerevisiae
[9] = tested on: Rattus norvegicus; assay: Anti-hyperglycemic activity in Wistar rat assessed as reduction in plasma glucose AUC (0 to 120 mins) at 5 mg/kg, po followed by glucose load by oral glucose tolerance test; format: functional
[10] = tested on: Saccharomyces cerevisiae; assay: Potency index, ratio of acarbose IC50 to test compound IC50 for inhibition of yeast alpha-glucosidase
[11] = tested on: Rattus norvegicus; assay: Anti-hyperglycemic activity in Wistar rat assessed as reduction in plasma glucose AUC (0 to 120 mins) at 5 mg/kg, po followed by sucrose load by oral sucrose tolerance test; format: functional

Row | SMILES | inhibition [1] | also measured
1 | O=C1Nc2ccccc2C1=Cc1ccc([N+](=O)[O-])cc1 (mixture of isomers) | 81.6% | IC50 [2]: 62.4 µM
2 | CC(=O)Nc1ccc2c(c1)C(CC(=O)O)(OC(C)=O)C(=O)N2 (stereo unspecified) | -5.09% | –
3 | C[C@H]1O[C@H](O[C@H]2[C@H](O)[C@@H](O)[C@@H](O[C@H]3[C@H](O)[C@@H](O)C(O)O[C@@H]3CO)O[C@@H]2CO)[C@H](O)[C@@H](O)[C@@H]1N[C@H]1C=C(CO)[C@@H](O)[C@H](O)[C@H]1O (stereo partly specified) [ACARBOSE] | 46.6% | inhibition in vivo at 5 mg/kg [3]: 37.2%; IC50 [2]: 436 µM
4 | O=C1Nc2ccccc2C1=Cc1cccs1 (mixture of isomers) | -1.25% | –
5 | COc1cc(C=C2C(=O)Nc3ccc(NC(C)=O)cc32)cc(OC)c1OC | -9.74% | –
6 | O=C1Nc2ccc([N+](=O)[O-])cc2C1=CC(=O)c1ccco1 (single isomer, unassigned; isomer 1) | 8.9% | –
7 | O=C1Nc2ccccc2C1=Cc1ccccn1 | -10% | –
8 | O=C1Nc2ccccc2C12CC2c1ccccn1 (stereo unspecified) | 12.1% | –
9 | O=C1Nc2ccccc2C1=Cc1ccc(O)cc1 (single isomer, unassigned; isomer 1) | 21.6% | –
10 | O=C(CSc1nnc2c(n1)[nH]c1ccccc12)c1cccc(O)c1 | – | IC50 [4]: 2.5 µM
11 | O=C1Nc2ccc(NC(=O)c3ccccc3)cc2C1=Cc1ccc(O)cc1 (mixture of isomers) | 92.3% | IC50 [5]: 4.34 µM; IC50 [2]: 136 µM
12 | O=C1Nc2ccc(NC(=O)c3ccccc3)cc2C1=Cc1ccc([N+](=O)[O-])cc1 (mixture of isomers) | 104% | IC50 [2]: 56.6 µM
13 | COc1ccc(C(=O)CC2(O)C(=O)Nc3ccc(Br)cc32)cc1 (stereo unspecified) | -3.83% | –
14 | O=C1Nc2ccccc2C1=Cc1cccnc1 (mixture of isomers) | 2.08% | –
15 | COc1cc(NC(C)=O)c2c(c1)C(CC#N)(OC(C)=O)C(=O)N2 (stereo unspecified) | 4.75% | –
16 | N#C[C@@H]1CCCN1C(=O)CNC12CC3CC(CC(O)(C3)C1)C2 [VILDAGLIPTIN] | – | inhibition in vivo at 10 mg/kg [6]: 28.6%; inhibition in vivo at 10 mg/kg [7]: 17.9%
17 | O=C1Nc2ccc(Br)cc2C1=Cc1cccnc1 | 10.7% | –
18 | O=C1Nc2ccc([N+](=O)[O-])cc2C1=Cc1cccnc1 | -7.99% | –
19 | COc1ccc2c(c1)C(=CC(=O)O)C(=O)N2 (mixture of isomers) | 81.1% | IC50 [2]: 26.4 µM
20 | O=C1Nc2ccccc2C1=Cc1ccncc1 (mixture of isomers) | -3.17% | –
21 | Cn1cc(C=C2C(=O)Nc3ccccc32)cn1 | 34.5% | –
22 | Cc1ccc(C(=O)CC2(O)C(=O)Nc3ccccc32)cc1 (stereo unspecified) | -4.01% | –
23 | O=C1Nc2ccccc2C1=CC(=O)c1ccco1 (mixture of isomers) | 37.5% | –
24 | COC(=O)Nc1ccc2c(c1)C(=Cc1ccc(O)cc1)C(=O)N2 | 57.9% | IC50 [2]: 76.7 µM
25 | COc1cc(C=C2C(=O)Nc3ccc(NC(=O)c4ccco4)cc32)cc(OC)c1OC (single isomer, unassigned; isomer 1) | 31.8% | –

Row | SMILES | inhibition [1] | also measured
26 | N#CCC1(O)C(=O)Nc2ccc(NC(=O)c3ccccc3)cc21 (stereo unspecified) | 29.2% | –
27 | Cc1ccc(C(=O)CC2(O)C(=O)Nc3ccc(NC(=O)c4ccccc4)cc32)cc1 (stereo unspecified) | 52.2% | –
28 | COC(=O)Nc1ccc2c(c1)C(=Cc1ccc(Br)cc1)C(=O)N2 (mixture of isomers) | 81.7% | IC50 [2]: 68.9 µM
29 | O=C1Nc2ccc(Br)cc2C1=CC(=O)c1ccco1 (mixture of isomers) | -3.81% | –
30 | O=C(N/N=C/c1cc(O)c(O)c(O)c1)c1cc2ccccc2[nH]1 | – | IC50 [8]: 2.3 µM
31 | O=C1Nc2ccc([N+](=O)[O-])cc2C1=Cc1cn[nH]c1C(=O)O (mixture of isomers) | 33.6% | –
32 | Cc1[nH]ncc1C=C1C(=O)Nc2ccccc21 (mixture of isomers) | 40.8% | –
33 | O=C1Nc2ccccc2C1=Cc1cn[nH]c1C(=O)O (mixture of isomers) | 11.4% | –
34 | O=C1Nc2ccc([N+](=O)[O-])cc2C1=Cc1ccncc1 (mixture of isomers) | -1.71% | –
35 | CC(=O)Nc1ccc2c(c1)C(=Cc1cccc(O)c1)C(=O)N2 (single isomer, unassigned; isomer 1) | 14.9% | –
36 | O=C1Nc2ccc(Br)cc2C1=Cc1ccncc1 (mixture of isomers) | -0.73% | –
37 | CN1C(=O)C2(CC2C#N)c2cc(Br)ccc21 (stereo unspecified) | 61.2% | –
38 | CCC(=O)Nc1cc(NC(=O)CC)c2c(c1)C(CC#N)(OC(=O)CC)C(=O)N2 (stereo unspecified) | 14.4% | –
39 | CN1C(=O)C(=Cc2ccc(O)cc2)c2ccccc21 (mixture of isomers) | 33.2% | –
40 | COC(=O)Nc1ccc2c(c1)C(=Cc1ccc([N+](=O)[O-])cc1)C(=O)N2 (mixture of isomers) | 103% | inhibition in vivo at 5 mg/kg [3]: 42.1%; inhibition in vivo at 5 mg/kg [9]: 12.3%; Ratio IC50 [10]: 80; inhibition in vivo at 5 mg/kg [11]: 28.8%; IC50 [2]: 6.78 µM
41 | CN1C(=O)C(=Cc2ccccn2)c2ccccc21 | 19.9% | –
42 | O=C1Nc2ccc(NC(=O)c3ccco3)cc2C1=Cc1ccc(O)cc1 (mixture of isomers) | 57.9% | –
43 | COc1ccc2c(c1)C(=CC#N)C(=O)N2Cc1ccccc1 (single isomer, unassigned; isomer 1) | 15.5% | –
44 | O=C1Nc2ccc(Br)cc2C1=Cc1ccccn1 | -1.49% | –
45 | Nc1ccc(CC2C(=O)Nc3ccccc32)cc1 (stereo unspecified) | -3.64% | –
46 | Cc1ccc(C(=O)CC2(O)C(=O)Nc3ccc(Br)cc32)cc1 (stereo unspecified) | -3.94% | –
47 | Cc1n[nH]c(C)c1C=C1C(=O)Nc2ccccc21 (mixture of isomers) | 12.6% | –
48 | Cc1nn(-c2ccccc2)c(C)c1C=C1C(=O)Nc2ccccc21 (single isomer, unassigned) | 75.5% | IC50 [2]: 153 µM
49 | COc1ccc2c(c1)C(O)(CC(=O)c1ccc(C)cc1)C(=O)N2 (stereo unspecified) | 65.4% | IC50 [2]: 60 µM
